Results on 31 compounds are retold here after ChEMBL document CHEMBL1135312, “N-Aroyl-L-phenylalanine derivatives as VCAM/VLA-4 antagonists” (Bioorg Med Chem Lett, 2002).

Experiment [1] deals with T1, Integrin alpha-4/beta-1 (Homo sapiens, UniProt P05556+P13612). Nature of the experiment: Inhibitory binding concentration against VCAM/VLA-4 in Ramos. It counts as protein-complex assay.
For experiment [2], the target named is T1, Integrin alpha-4/beta-1. Nature of the experiment: Inhibitory binding concentration against VCAM/VLA-4 in ELISA. The class given is protein-complex assay.

T1 sequence (P05556 whole entry): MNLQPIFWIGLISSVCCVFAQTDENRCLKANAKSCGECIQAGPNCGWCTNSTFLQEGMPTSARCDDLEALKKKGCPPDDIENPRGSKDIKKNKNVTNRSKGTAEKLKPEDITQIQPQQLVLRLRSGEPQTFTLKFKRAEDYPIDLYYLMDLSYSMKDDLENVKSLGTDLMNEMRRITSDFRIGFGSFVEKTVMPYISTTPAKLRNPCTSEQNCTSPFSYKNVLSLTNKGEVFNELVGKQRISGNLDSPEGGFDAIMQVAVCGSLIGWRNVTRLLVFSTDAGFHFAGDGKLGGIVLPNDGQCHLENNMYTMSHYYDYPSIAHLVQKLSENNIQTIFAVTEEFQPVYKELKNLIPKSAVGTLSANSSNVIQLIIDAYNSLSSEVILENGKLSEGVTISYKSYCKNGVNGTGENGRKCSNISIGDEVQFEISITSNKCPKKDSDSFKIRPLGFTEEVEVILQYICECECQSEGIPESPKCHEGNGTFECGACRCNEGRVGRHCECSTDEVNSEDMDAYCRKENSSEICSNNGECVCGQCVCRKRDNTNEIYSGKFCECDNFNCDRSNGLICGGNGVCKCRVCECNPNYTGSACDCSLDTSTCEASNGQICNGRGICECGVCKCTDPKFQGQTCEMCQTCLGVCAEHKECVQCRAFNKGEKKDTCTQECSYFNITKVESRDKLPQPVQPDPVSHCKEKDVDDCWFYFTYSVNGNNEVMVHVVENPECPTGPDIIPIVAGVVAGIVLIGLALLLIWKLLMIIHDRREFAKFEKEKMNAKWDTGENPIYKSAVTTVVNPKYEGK
T1 sequence (P13612 whole entry): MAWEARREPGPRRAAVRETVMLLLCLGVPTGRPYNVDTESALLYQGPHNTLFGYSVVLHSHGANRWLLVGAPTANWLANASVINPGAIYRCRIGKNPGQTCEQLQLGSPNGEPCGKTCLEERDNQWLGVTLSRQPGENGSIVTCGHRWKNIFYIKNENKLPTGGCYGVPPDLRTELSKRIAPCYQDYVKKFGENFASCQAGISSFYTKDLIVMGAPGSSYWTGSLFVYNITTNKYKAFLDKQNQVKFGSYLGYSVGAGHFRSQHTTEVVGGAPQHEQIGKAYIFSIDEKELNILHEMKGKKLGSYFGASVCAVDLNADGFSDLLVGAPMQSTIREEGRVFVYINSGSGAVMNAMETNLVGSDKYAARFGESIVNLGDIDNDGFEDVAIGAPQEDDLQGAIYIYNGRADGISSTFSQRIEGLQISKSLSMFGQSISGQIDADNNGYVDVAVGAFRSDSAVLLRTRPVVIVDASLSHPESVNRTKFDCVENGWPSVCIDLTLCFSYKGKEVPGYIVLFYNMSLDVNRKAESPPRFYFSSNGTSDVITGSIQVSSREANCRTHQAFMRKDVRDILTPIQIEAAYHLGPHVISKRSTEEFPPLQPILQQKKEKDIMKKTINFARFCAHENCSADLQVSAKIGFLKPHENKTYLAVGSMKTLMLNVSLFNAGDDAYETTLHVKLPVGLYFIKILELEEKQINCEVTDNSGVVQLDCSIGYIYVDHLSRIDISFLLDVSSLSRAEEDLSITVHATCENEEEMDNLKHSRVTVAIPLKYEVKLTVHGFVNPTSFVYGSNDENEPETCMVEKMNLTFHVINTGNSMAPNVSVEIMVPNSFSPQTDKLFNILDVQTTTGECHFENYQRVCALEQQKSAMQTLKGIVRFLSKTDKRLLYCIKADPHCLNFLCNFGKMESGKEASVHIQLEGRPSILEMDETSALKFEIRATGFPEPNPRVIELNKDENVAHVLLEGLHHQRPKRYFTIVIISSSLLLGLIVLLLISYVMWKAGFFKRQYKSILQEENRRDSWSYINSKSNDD

As a reminder, the IC50 is the point on the concentration scale where inhibition reaches its midpoint. As to `CSc1ccccc1C(=O)N[C@@H](Cc1ccc(NC(=O)c2c(Cl)cccc2Cl)cc1)C(=O)O`, the IC50 at Integrin alpha-4/beta-1 [1] came out at 100 nM; at Integrin alpha-4/beta-1 [2], 0.4 nM.
Regarding `Cc1cccc(C(=O)N[C@@H](Cc2ccc(NC(=O)c3c(Cl)cccc3Cl)cc2)C(=O)O)c1Cl`, the IC50 on Integrin alpha-4/beta-1 [1] worked out at 1300 nM.
Same read-out and setting: in the case of `O=C(N[C@@H](Cc1ccc(NC(=O)c2c(Cl)cccc2Cl)cc1)C(=O)O)c1cccc(Cl)c1Cl` it was 1600 nM.
Same read-out and setting: the value for `CC(C)c1cccc(C(C)C)c1C(=O)N[C@@H](Cc1ccc(NC(=O)c2c(Cl)cccc2Cl)cc1)C(=O)O` was 460 nM.
For `Cc1noc(C)c1C(=O)N[C@@H](Cc1ccc(NC(=O)c2c(Cl)cccc2Cl)cc1)C(=O)O`, the figures for the IC50 on Integrin alpha-4/beta-1 [1] and on Integrin alpha-4/beta-1 [2] were 580 nM and 15 nM, respectively.
Regarding `O=C(Nc1ccc(C[C@H](NC(=O)c2c(F)cccc2C(F)(F)F)C(=O)O)cc1)c1c(Cl)cccc1Cl`, the IC50 at Integrin alpha-4/beta-1 [2] came out at 0.4 nM.
On to `O=C(N[C@@H](Cc1ccc(NC(=O)c2c(Cl)cccc2Cl)cc1)C(=O)O)c1ccccc1C(F)(F)F`, for which the figures for the IC50 on Integrin alpha-4/beta-1 [1] and on Integrin alpha-4/beta-1 [2] were 650 nM and 16 nM, respectively.
Taken in the same sequence, the figures for `Cc1cccc(F)c1C(=O)N[C@@H](Cc1ccc(NC(=O)c2c(Cl)cccc2Cl)cc1)C(=O)O` were 85 nM and 0.44 nM.
Compound `Cc1cc(C(F)(F)F)c(C(=O)N[C@@H](Cc2ccc(NC(=O)c3c(Cl)cccc3Cl)cc2)C(=O)O)c(C)n1` registered an IC50 on Integrin alpha-4/beta-1 [1] of 200 nM.
On the same count and under the same terms, the value for `CNc1ccccc1C(=O)N[C@@H](Cc1ccc(NC(=O)c2c(Cl)cccc2Cl)cc1)C(=O)O` was 1000 nM.
On to `O=C(N[C@@H](Cc1ccc(NC(=O)c2c(Cl)cccc2Cl)cc1)C(=O)O)c1ccccc1Br`, for which the IC50 at Integrin alpha-4/beta-1 [1] was determined as 45 nM; on Integrin alpha-4/beta-1 [2], 0.49 nM.
Take `O=C(N[C@@H](Cc1ccc(NC(=O)c2c(Cl)cccc2Cl)cc1)C(=O)O)c1cc(C(F)(F)F)ccc1Cl`: the results for the IC50 at Integrin alpha-4/beta-1 [1] and on Integrin alpha-4/beta-1 [2] were 450 nM and 8.8 nM, respectively.
In turn, `O=C(N[C@@H](Cc1ccc(NC(=O)c2c(Cl)cccc2Cl)cc1)C(=O)O)c1ccc(Br)cc1Cl` returned an IC50 on Integrin alpha-4/beta-1 [1] of 1300 nM.
`Cc1ccc(Cl)c(C(=O)N[C@@H](Cc2ccc(NC(=O)c3c(Cl)cccc3Cl)cc2)C(=O)O)c1`: the IC50 on Integrin alpha-4/beta-1 [1] was found to be 460 nM; at Integrin alpha-4/beta-1 [2] it was 11 nM.
In turn, `COc1ccccc1C(=O)N[C@@H](Cc1ccc(NC(=O)c2c(Cl)cccc2Cl)cc1)C(=O)O` gave a 50% inhibitory concentration (IC50) on Integrin alpha-4/beta-1 [1] of 6800 nM.
On to `O=C(N[C@@H](Cc1ccc(NC(=O)c2c(Cl)cccc2Cl)cc1)C(=O)O)c1c(F)cccc1F`, for which the figures for the half-inhibitory concentration (IC50) on Integrin alpha-4/beta-1 [1] and at Integrin alpha-4/beta-1 [2] were 67 nM and 1.2 nM, respectively.
With `Cc1ccnc(C)c1C(=O)N[C@@H](Cc1ccc(NC(=O)c2c(Cl)cccc2Cl)cc1)C(=O)O`, the values for the 50% inhibitory concentration (IC50) on Integrin alpha-4/beta-1 [1] and on Integrin alpha-4/beta-1 [2] were 23 nM and 0.89 nM, respectively.
Taken in the same sequence, the figures for `CC(C)(C)c1ccccc1C(=O)N[C@@H](Cc1ccc(NC(=O)c2c(Cl)cccc2Cl)cc1)C(=O)O` were 74 nM and 1.9 nM.
On Integrin alpha-4/beta-1 [1], `CS(=O)(=O)c1ccccc1C(=O)N[C@@H](Cc1ccc(NC(=O)c2c(Cl)cccc2Cl)cc1)C(=O)O` came in with an IC50 of 160 nM.
On to `Cc1ncccc1C(=O)N[C@@H](Cc1ccc(NC(=O)c2c(Cl)cccc2Cl)cc1)C(=O)O`, for which the IC50 on Integrin alpha-4/beta-1 [1] came to 180 nM; on Integrin alpha-4/beta-1 [2], 2 nM.
Take `Cc1cccc(C)c1C(=O)N[C@@H](Cc1ccc(NC(=O)c2c(Cl)cccc2Cl)cc1)C(=O)O`: the IC50 on Integrin alpha-4/beta-1 [1] is 84 nM; at Integrin alpha-4/beta-1 [2] it was 1.3 nM.
For `CCCc1cccc(C)c1C(=O)N[C@@H](Cc1ccc(NC(=O)c2c(Cl)cccc2Cl)cc1)C(=O)O`, in that order: 17 nM and 0.42 nM.
For `O=C(N[C@@H](Cc1ccc(NC(=O)c2c(Cl)cccc2Cl)cc1)C(=O)O)c1cncnc1C(F)(F)F`, the values for the IC50 on Integrin alpha-4/beta-1 [1] and at Integrin alpha-4/beta-1 [2] were 190 nM and 2 nM, respectively.
`COc1ccc(Br)c(C(=O)N[C@@H](Cc2ccc(NC(=O)c3c(Cl)cccc3Cl)cc2)C(=O)O)c1` yielded an IC50 on Integrin alpha-4/beta-1 [1] of 19 nM.
As for `CC(=O)c1cccc(Cl)c1C(=O)N[C@@H](Cc1ccc(NC(=O)c2c(Cl)cccc2Cl)cc1)C(=O)O`, the IC50 on Integrin alpha-4/beta-1 [1] was 49 nM; on Integrin alpha-4/beta-1 [2] it was 1.6 nM.
Take `Cc1nc(C(C)C)sc1C(=O)N[C@@H](Cc1ccc(NC(=O)c2c(Cl)cccc2Cl)cc1)C(=O)O`: the IC50 came out at 69 nM at Integrin alpha-4/beta-1 [1] and 0.56 nM on Integrin alpha-4/beta-1 [2].
For `Cc1nn(-c2ccccc2)nc1C(=O)N[C@@H](Cc1ccc(NC(=O)c2c(Cl)cccc2Cl)cc1)C(=O)O`, in that order: 1440 nM and 25 nM.
Turning to `COc1ccc(C(=O)N[C@@H](Cc2ccc(NC(=O)c3c(Cl)cccc3Cl)cc2)C(=O)O)c(Cl)c1`, on Integrin alpha-4/beta-1 [2], the half-inhibitory concentration (IC50) was 1.9 nM.
In the case of `Cc1cccc(Cl)c1C(=O)N[C@@H](Cc1ccc(NC(=O)c2c(Cl)cccc2Cl)cc1)C(=O)O`, the IC50 on Integrin alpha-4/beta-1 [1] came to 12 nM; on Integrin alpha-4/beta-1 [2] it was 0.3 nM.
Taken in the same sequence, the figures for `O=C(N[C@@H](Cc1ccc(NC(=O)c2c(Cl)cccc2Cl)cc1)C(=O)O)c1sccc1Br` were 890 nM and 1.5 nM.
On Integrin alpha-4/beta-1 [2], `CCc1cccc(C)c1C(=O)N[C@@H](Cc1ccc(NC(=O)c2c(Cl)cccc2Cl)cc1)C(=O)O` had an IC50 of 0.3 nM. This lies in the sub-nanomolar range.
